What was measured:
A498 [1] = experiment: cells; settings: Homo sapiens, A498, 48 h
RPMI 8866 = experiment: MTT assay; assay type: cell-based; settings: Homo sapiens; RPMI 8866, 24 h of treatment
Method: (§1) The NCI-60 screening protocol utilizes the sulforhodamine B (SRB) assay following 48 h of compound exposure. […] The MTT assay was performed on eleven cancer cell lines: human breast cancer (MDA-MB-231, MCF-7, HCC 1954), human gastric cancer (AGS), human colorectal adenocarcinoma (HT-29, DLD-1, HCT 116), human neuroblastoma (SH SY5Y), and human leukemia (JURKAT, RMPI 8866, K-562) cell lines. The study was conducted in triplicate at the following seven concentrations: 0.62, 1.25, 2.5, 5, 10, 20, and 40 μM.
(§2) The selected cell lines were seeded into 96-well plates and cultured in accordance with the previously described methodology. Then, the cells were treated with all tested compounds and DOX at concentrations of 0.625, 1.25, 2.5, 5.0, 10.0, 20.0, and 40.0 μM for 24 h. A solution of 3-(4,5-dimethyl-2-thiazolyl)-2,5-diphenyl-2H-tetrazolium bromide (Sigma-Aldrich, St. Louis, MO, USA) in phosphate-buffered saline without calcium and magnesium (Corning, Kennebunk, ME, USA) at a concentration of 5 mg/mL was used to carry out MTT assay. After incubation, 20 μL of the prepared MTT solution was added, and then the cells were incubated at 37 °C for two hours. Afterwards, the cells were lysed using 100 μL of lysing buffer (comprising 25 mM HCl, 2% acetic acid, 3% DMF, and 5% SDS, with a pH of 4.7). The absorbance was determined at a wavelength of 570 nm using an Absorbance 96 microplate reader (Byonoy GmbH, Hamburg, Germany).

AGS = experiment: MTT assay; assay type: cell-based; settings: Homo sapiens, 24 h of treatment
Method: as §1, §2

HT-29 = experiment: MTT assay; assay type: cell-based; settings: Homo sapiens; HT-29, 24 h of treatment
Method: as §1, §2

MCF-7 = experiment: MTT assay; assay type: cell-based; settings: Homo sapiens, MCF7; MCF-7, 24 h of treatment
Method: as §1, §2

K562 = experiment: MTT assay; assay type: cell-based; settings: Homo sapiens; K562, 24 h of treatment
Method: as §1, §2

MDA-MB-231 = experiment: MTT assay; assay type: cell-based; settings: Homo sapiens; MDA-MB-231, 24 h of treatment
Method: as §1, §2

DLD-1 = experiment: MTT assay; assay type: cell-based; settings: Homo sapiens; DLD-1, 24 h of treatment
Method: as §1, §2

HCC-1954 = experiment: MTT assay; assay type: cell-based; settings: Homo sapiens, HCC1954; HCC-1954, 24 h of treatment
Method: as §1, §2

HCT-116 = experiment: MTT assay; assay type: cell-based; settings: Homo sapiens; HCT-116, 24 h of treatment
Method: as §1, §2

Jurkat = experiment: MTT assay; assay type: cell-based; settings: Homo sapiens, 24 h of treatment
Method: as §1, §2

SH SY5Y = experiment: MTT assay; assay type: cell-based; settings: Homo sapiens, 24 h of treatment
Method: as §1, §2

A498 [2] = settings: A498, 48 h
LOX IMVI = settings: LOX IMVI, 48 h
RPMI-8226 = experiment: cells; settings: Homo sapiens, RPMI-8226, 48 h; for CC50: read-out: LC50
HT29 = experiment: cells; settings: Homo sapiens, HT-29, 48 h; for GI50: HT29, 48 h; for CC50: read-out: LC50, HT29, 48 h
Breast cancer = Breast cancer subpanel
OVCAR-3 = settings: for TGI: OVCAR-3, 48 h
SN12C = settings: SN12C, 48 h
U251 = experiment: NCI-60 SRB screen; settings: for GI50 / CC50: Homo sapiens, U-251, 48 h; for GI50 / TGI: U251, 48 h; for CC50: read-out: LC50, U251, 48 h
SK-MEL-5 = experiment: cells; settings: Homo sapiens, SK-MEL-5, 48 h; for CC50: read-out: LC50, SK-MEL-5, 48 h
786-0 = experiment: cells; settings: Homo sapiens, 786-0, 48 h
HS 578T = settings: 48 h
SK-OV-3 = experiment: cells; settings: Homo sapiens, SK-OV-3, 48 h; for CC50: read-out: LC50, SK-OV-3, 48 h
COLO 205 = settings: COLO 205, 48 h
Leukemia = experiment: cells; settings: Homo sapiens; for GI50: read-out: MG_MID GI50; for CC50: read-out: MG_MID LC50
RXF 393 = experiment: NCI-60 SRB screen; settings: RXF 393, 48 h; for GI50: Homo sapiens
NCI-H460 = experiment: NCI-60 SRB screen; settings: NCI-H460, 48 h; for GI50 / CC50: Homo sapiens; for CC50: read-out: LC50
NCI-H266 = experiment: NCI-60 SRB screen; settings: for GI50 / CC50: Homo sapiens, 48 h; for GI50 / TGI: NCI-H266, 48 h; for CC50: read-out: LC50, NCI-H266, 48 h
Prostate Cancer = Prostate Cancer subpanel
NCI-H23 = experiment: cells; settings: Homo sapiens, NCI-H23, 48 h; for CC50: read-out: LC50, NCI-H23, 48 h

## O=C(O)C(c1ccccc1)N1C(=O)/C(=C/C=C/c2ccc([N+](=O)[O-])o2)SC1=S (centres unmarked) [9b, 2-((Z)-5-((E)-3-(5-Nitrofuran-2-yl)allylidene)-4-oxo-2-thioxothiazolidin-3-yl)-2-phenylacetic acid]
A498 [1]
  GI50: 20.8 µM
RPMI 8866
  IC50: 5.54 µM
AGS
  IC50: 12.9 µM
HT-29
  IC50: 20 µM
MCF-7
  IC50: 14.1 µM
K562
  IC50: 37.6 µM
MDA-MB-231
  IC50: 36.7 µM
DLD-1
  IC50: 12.3 µM
HCC-1954
  IC50: 20.6 µM
HCT-116
  IC50: 11.7 µM
Jurkat
  IC50: 2.51 µM
SH SY5Y
  IC50: 20.1 µM
A498 [2]
  TGI: 36.5 µM
LOX IMVI
  TGI: 25.9 µM
RPMI-8226
  GI50: 3.19 µM
  CC50: > 100 µM
HT29
  GI50: 5.02 µM
  CC50: 94.5 µM
Breast cancer
  MG_MID TGI: 22.2 µM
OVCAR-3
  TGI: 21.4 µM
SN12C
  TGI: 18.3 µM
U251
  GI50: 4.11 µM
  CC50: 49.8 µM
  TGI: 16.5 µM
SK-MEL-5
  GI50: 3.38 µM
  CC50: 38.8 µM
786-0
  GI50: 3.67 µM
HS 578T
  TGI: 35.0 µM
SK-OV-3
  GI50: 15.9 µM
  CC50: 56.3 µM
COLO 205
  TGI: 22.2 µM
Leukemia
  GI50: 6.64 µM
  CC50: > 100 µM
RXF 393
  GI50: 4.01 µM
  TGI: 14.6 µM
NCI-H460
  GI50: 11.6 µM
  CC50: 73.6 µM
  TGI: 29.2 µM
NCI-H266
  GI50: 12.2 µM
  CC50: 89.7 µM
  TGI: 33.1 µM
Prostate Cancer
  MG_MID TGI: 26.8 µM
NCI-H23
  GI50: 14.4 µM
  CC50: 66.9 µM

## CC(C)C(C(=O)O)N1C(=O)/C(=C/C=C/c2ccc([N+](=O)[O-])o2)SC1=S (centres unmarked) [5b, 3-Methyl-2-((Z)-5-((E)-3-(5-nitrofuran-2-yl)allylidene)-4-oxo-2-thioxothiazolidin-3-yl)butanoic acid]
A498 [1]
  GI50: 2.69 µM
RPMI 8866
  IC50: 13.5 µM
AGS
  IC50: 2.65 µM
HT-29
  IC50: 7.74 µM
MCF-7
  IC50: 3.32 µM
K562
  IC50: 16.1 µM
MDA-MB-231
  IC50: 9.12 µM
DLD-1
  IC50: 3.86 µM
HCC-1954
  IC50: 6.42 µM
HCT-116
  IC50: 4.21 µM
Jurkat
  IC50: 3.73 µM
SH SY5Y
  IC50: 9.37 µM
A498 [2]
  TGI: 4.81 µM
LOX IMVI
  TGI: 2.49 µM
RPMI-8226
  GI50: 0.35 µM
  CC50: > 100 µM
HT29
  GI50: 1.37 µM
  CC50: 6.14 µM
Breast cancer
  MG_MID TGI: 3.46 µM
OVCAR-3; OVCAR-3, 10 μM, 48 h
  growth GP: -95.93%
OVCAR-3
  TGI: 2.77 µM
SN12C
  TGI: 2.15 µM
U251
  GI50: 0.5 µM
  CC50: 4.64 µM
  TGI: 1.79 µM
SK-MEL-5
  GI50: 1.03 µM
  CC50: 4.74 µM
786-0
  GI50: 1.06 µM
HS 578T
  TGI: 7.56 µM
SK-OV-3
  GI50: 2.79 µM
  CC50: 33.9 µM
COLO 205
  TGI: 2.79 µM
Leukemia
  GI50: 0.84 µM
  CC50: > 100 µM
RXF 393
  GI50: 1.74 µM
  TGI: 3.27 µM
NCI-H460
  GI50: 1.76 µM
  CC50: 34.5 µM
  TGI: 4.93 µM
NCI-H266
  GI50: 2.4 µM
  CC50: 88.8 µM
  TGI: 7.65 µM
Prostate Cancer
  MG_MID TGI: 4.67 µM
NCI-H23
  GI50: 1.75 µM
  CC50: 6.63 µM

Source: article PMC12655351, “Synthesis and Anticancer Activity Evaluation of New 5-((5-Nitrofuran-2-yl)allylidene)-2-thioxo-4-thiazolidinones” (Pharmaceuticals, 2025)
